{"source": "patent US10626094B2", "about": "(La Jolla Institute of Allergy & Immunology, priority 2014, dated 2020)", "target": "LMPTP-A (Low Molecular Weight Protein Tyrosine Phosphatase-A) enzyme (Homo sapiens (Human), UniProt P24666)", "sequence (P24666 whole entry)": "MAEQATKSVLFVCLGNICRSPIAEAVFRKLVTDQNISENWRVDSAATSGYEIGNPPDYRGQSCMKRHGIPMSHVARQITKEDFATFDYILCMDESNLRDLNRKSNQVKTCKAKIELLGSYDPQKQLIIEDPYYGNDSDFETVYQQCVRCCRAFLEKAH", "assay": "LMPTP primary screening / LMPTP (OMFP) enzyme inhibition assay, fluorescence intensity", "assay_type": "biochemical", "settings": "LMPTP-A, OMFP substrate, method of Example 2; read-out: IC50", "method": "This assay attempts to identify inhibitors of the LMPTP-A (Low Molecular Weight Protein Tyrosine Phosphatase-A) enzyme. It is run in 1536-well format and is measured via fluorescence intensity.\nA listing of materials is provided: • Item, source, catalog no. • LMPTP-A Enzyme Stock Solution (4.22 mg/ml or 206.8 μM), SBMRI Protein Facility, • N/A • OMFP, Sigma, M2629-100MG • Bis-Tris pH 6.0, Fisher Sci, BP301-100 • Triton-X 100, Sigma, T9284 • DTT, Sigma, D9779 • Mol. Grade Water, Mediatech, Inc., 46-000-CM • 1536-well black High base opaque bottom plate, Nexus Biosystems, 00019120\nFinal assay conditions are: • 0.625 nM LMPTP-A Enzyme • 400 μM OMFP • 50 mM Bis-Tris pH 6.0 • 1 mM DTT • 0.01% Triton-X 100 • 20 μM test compound • 3% DMSO (2% from substrate and 1% from compounds) • 6 μL reaction volume • 50 minutes incubation at room temp\nAssay Procedure • 1. Prepare Reagents as described in section F. Recipe. • 2. Using LabCyte Echo, transfer 60 nL from 2 mM test compound source plate into assay plate Col. 5-48 (final concentration of test compounds is 20 μM). 60 nL of DMSO should be transferred to col. 1-4 for positive and negative control wells. • 3. Spin plates at 1000 rpm for 1 minute in centrifuge. • 4. […] Using the Bioraptr, add 3 μL/well of enzyme solution to col. 3-48. • 6. Using the Bioraptr, add 3 μL/well of substrate solution to col. 1-48. • 7. Spin plates at 1000 rpm for 1 minute in centrifuge. • 8. Incubate plates in the dark at room temperature for 50 minutes. • 9. Read plates on PerkinElmer Viewlux using a FI protocol.", "data": [{"compound": "O=S(=O)(c1ccc(-c2cc(NCCCN3CCCCC3)c3ccccc3n2)cc1)N1CCOCC1", "note": "[Compound I236]", "values": [{"measurement": "IC50", "result": "200 to 800", "unit": "nM"}]}, {"compound": "COc1ccc(-c2cc(NCCCN3CCCCC3)c3ccccc3n2)cn1", "note": "[Compound I156]", "values": [{"measurement": "IC50", "result": "801 to 5000", "unit": "nM"}]}, {"compound": "c1c[nH]c(-c2cc(NCCCN3CCCCC3)c3ccccc3n2)c1", "note": "[Compound G22, (3-Piperidin-1-yl-propyl)-[2-(1H-pyrrol-2-yl)-quinolin-4-yl]-amine]", "values": [{"measurement": "IC50", "result": "801 to 5000", "unit": "nM"}]}, {"compound": "NC(=O)c1ccc(-c2cc(Nc3ccc(CN4CCCCC4)cc3)c3ccccc3n2)cc1", "note": "[Compound I6, 4-(4-{[4-(piperidylmethyl)phenyl]amino}-2-quinolyl)benzamide]", "values": [{"measurement": "IC50", "result": "> 5000", "unit": "nM"}]}, {"compound": "Fc1cccc(F)c1-c1cc(NCCCN2CCCCC2)c2ccccc2n1", "note": "[Compound I130]", "values": [{"measurement": "IC50", "result": "801 to 5000", "unit": "nM"}]}, {"compound": "Clc1cccc(-c2cc(Nc3cccc(CC4CCNCC4)c3)c3ccccc3n2)c1", "note": "[Compound I19, [2-(3-chlorophenyl)(4-quinolyl)][3-(4-piperidylmethyl)phenyl]amine]", "values": [{"measurement": "IC50", "result": "801 to 5000", "unit": "nM"}]}, {"compound": "Clc1cccc(-c2cc(Nc3cccc(CN4CCCC4)c3)c3ccccc3n2)c1", "note": "[Compound I12, [2-(3-chlorophenyl)(4-quinolyl)][3-(pyrrolidinylmethyl)phenyl]amine]", "values": [{"measurement": "IC50", "result": "801 to 5000", "unit": "nM"}]}, {"compound": "[2-(3,5-dichlorophenyl)(4-quinolyl)](3-piperidylpropyl)amine [Compound I170]", "values": [{"measurement": "IC50", "result": "801 to 5000", "unit": "nM"}]}, {"compound": "CNC(=O)c1ccc(-c2cc(NCCCN3CCCCC3)c3ccccc3n2)cc1", "note": "[Compound I73]", "values": [{"measurement": "IC50", "result": "801 to 5000", "unit": "nM"}]}, {"compound": "COc1ccc(-c2cc(NCc3ccccc3)c3ccccc3n2)cc1", "note": "[Compound G75, [2-(4-methoxyphenyl)(4-quinolyl)]benzylamine]", "values": [{"measurement": "IC50", "result": "801 to 5000", "unit": "nM"}]}, {"compound": "COc1ccc(-c2cc(NCc3cccc(C#N)c3)c3ccccc3n2)cc1", "note": "[Compound G82, 3-({[2-(4-methoxyphenyl)-4-quinolyl]amino}methyl)benzenecarbonitrile]", "values": [{"measurement": "IC50", "result": "801 to 5000", "unit": "nM"}]}, {"compound": "c1ccc(CSc2cccc(-c3cc(NCCCN4CCCCC4)c4ccccc4n3)c2)cc1", "note": "[Compound I245]", "values": [{"measurement": "IC50", "result": "> 5000", "unit": "nM"}]}, {"compound": "COc1ccc(-c2cc(Nc3ccncc3)c3ccccc3n2)cc1", "note": "[Compound G65, [2-(4-methoxyphenyl)(4-quinolyl)]-4-pyridylamine]", "values": [{"measurement": "IC50", "result": "801 to 5000", "unit": "nM"}]}, {"compound": "CN(C)CCNC(=O)c1ccc(-c2cc(NCCCN3CCCCC3)c3ccccc3n2)cc1", "note": "[Compound I66]", "values": [{"measurement": "IC50", "result": "200 to 800", "unit": "nM"}]}, {"compound": "COCc1ccc(-c2cc(NCCCN3CCCCC3)c3ccccc3n2)cc1", "note": "[Compound I135]", "values": [{"measurement": "IC50", "result": "200 to 800", "unit": "nM"}]}, {"compound": "C[N+]1(C)CCC(Cc2ccccc2Nc2cc(-c3cc(C(F)(F)F)cc(C(F)(F)F)c3)nc3ccccc23)CC1", "note": "[Compound I48, {2-[(1,1-dimethyl(4-piperidyl))methyl]phenyl} {2-[3,5-bis(trifluoromethyl)phenyl](4-quinolyl)}amine]", "values": [{"measurement": "IC50", "result": "> 5000", "unit": "nM"}]}, {"compound": "Clc1cccc(-c2cc(Nc3ccc(CN4CCCCC4)cc3)c3ccccc3n2)c1", "note": "[Compound I11, [2-(3-chlorophenyl)(4-quinolyl)][4-(piperidylmethyl)phenyl]amine]", "values": [{"measurement": "IC50", "result": "801 to 5000", "unit": "nM"}]}, {"compound": "O=C(O)CNC(=O)c1ccc(-c2cc(NCCCN3CCCCC3)c3ccccc3n2)cc1", "note": "[Compound I68]", "values": [{"measurement": "IC50", "result": "801 to 5000", "unit": "nM"}]}, {"compound": "Cc1nc(C)c(-c2cc(N(C)C)c3ccccc3n2)s1", "note": "[Compound G21, [2-(2,4-Dimethyl-thiazol-5-yl)-quinolin-4-yl]-dimethyl-amine]", "values": [{"measurement": "IC50", "result": "> 5000", "unit": "nM"}]}, {"compound": "c1ccc2c(NCCCN3CCCCC3)cc(-c3ccc(-c4nn[nH]n4)cc3)nc2c1", "note": "[Compound I205]", "values": [{"measurement": "IC50", "result": "801 to 5000", "unit": "nM"}]}, {"compound": "methyl 3-{4-[(3-piperidylpropyl)amino]-2-quinolyl}benzoate [Compound I155]", "values": [{"measurement": "IC50", "result": "801 to 5000", "unit": "nM"}]}, {"compound": "CN(C)c1cc(-c2cnn(C)c2)nc2ccccc12", "note": "[Compound G19, Dimethyl[2-(1-methylpyrazol-4-yl)(4-quinolyl)]amine]", "values": [{"measurement": "IC50", "result": "> 5000", "unit": "nM"}]}, {"compound": "[2-(5-bromo-3-chloro-2-fluorophenyl)(4-quinolyl)](3-piperidylpropyl)amine [Compound I239]", "values": [{"measurement": "IC50", "result": "801 to 5000", "unit": "nM"}]}, {"compound": "Cn1ccc(-c2cc(NCCCN3CCCCC3)c3ccccc3n2)n1", "note": "[Compound I178]", "values": [{"measurement": "IC50", "result": "> 5000", "unit": "nM"}]}, {"compound": "COc1ccc(-c2cc(Nc3cccc(CN4CCS(=O)(=O)CC4)c3)c3ccccc3n2)cc1", "note": "[Compound G62, 4-[(3-{[2-(4-methoxyphenyl)-4-quinolyl]amino}phenyl)methyl]-1,4-thiazaperhydroine-1,1-dione]", "values": [{"measurement": "IC50", "result": "801 to 5000", "unit": "nM"}]}, {"compound": "CS(=O)(=O)c1ccc(-c2cc(NCCCN3CCCCC3)c3ccccc3n2)c(C(F)(F)F)c1", "note": "[Compound I121]", "values": [{"measurement": "IC50", "result": "801 to 5000", "unit": "nM"}]}, {"compound": "COc1ccc(-c2cc(Nc3ccccc3CC3CCN(C)CC3)c3ccccc3n2)cc1", "note": "[Compound I37, [2-(4-methoxyphenyl)(4-quinolyl)]{2-[(1-methyl(4-piperidyl))methyl]phenyl}amine]", "values": [{"measurement": "IC50", "result": "> 5000", "unit": "nM"}]}, {"compound": "CCN1CCN(Cc2ccc(CNc3cc(-c4ccc(C(N)=O)cc4)nc4ccccc34)cc2)CC1", "note": "[Compound I214, 4-{4-[({4-[(4-ethylpiperazinyl)methyl]phenyl}methyl)amino]-2-quinolyl}benzamide]", "values": [{"measurement": "IC50", "result": "> 5000", "unit": "nM"}]}, {"compound": "CCN(CC)S(=O)(=O)c1cccc(-c2cc(NCCCN3CCCCC3)c3ccccc3n2)c1", "note": "[Compound I244]", "values": [{"measurement": "IC50", "result": "> 5000", "unit": "nM"}]}, {"compound": "O=C(c1ccc(-c2cc(NCCCN3CCCCC3)c3ccccc3n2)cc1)N1CCOCC1", "note": "[Compound I234]", "values": [{"measurement": "IC50", "result": "200 to 800", "unit": "nM"}]}, {"compound": "c1coc(-c2cc(NCCCN3CCCCC3)c3ccccc3n2)c1", "note": "[Compound G12, (2-Furan-2-yl-quinolin-4-yl)-(3-piperidin-1-yl-propyl)-amine]", "values": [{"measurement": "IC50", "result": "801 to 5000", "unit": "nM"}]}, {"compound": "FC(F)(F)c1ccccc1-c1cc(Nc2ccccc2)c2ccccc2n1", "note": "[Compound G33, Phenyl-[2-(2-trifluoromethyl-phenyl)-quinolin-4-yl]-amine]", "values": [{"measurement": "IC50", "result": "> 5000", "unit": "nM"}]}, {"compound": "c1ccc2c(NCCCN3CCCCC3)cc(-c3ccc4nc[nH]c4c3)nc2c1", "note": "[Compound I111]", "values": [{"measurement": "IC50", "result": "801 to 5000", "unit": "nM"}]}, {"compound": "[2-(2,4-dichlorophenyl)(4-quinolyl)](3-piperidylpropyl)amine [Compound I103]", "values": [{"measurement": "IC50", "result": "801 to 5000", "unit": "nM"}]}, {"compound": "COc1ccc(-c2cc(Nc3cccc(CC4CCN(C)CC4)c3)c3ccccc3n2)cc1", "note": "[Compound I31, [2-(4-methoxyphenyl)(4-quinolyl)]{3-[(1-methyl(4-piperidyl))methyl]phenyl}amine]", "values": [{"measurement": "IC50", "result": "200 to 800", "unit": "nM"}]}, {"compound": "[2-(3,4-dichlorophenyl)(4-quinolyl)](3-piperidylpropyl)amine [Compound I138]", "values": [{"measurement": "IC50", "result": "801 to 5000", "unit": "nM"}]}, {"compound": "FC(F)(F)c1ccc(Nc2cc(NCCCN3CCCCC3)c3ccccc3n2)c(C(F)(F)F)c1", "note": "[Compound I75]", "values": [{"measurement": "IC50", "result": "> 5000", "unit": "nM"}]}, {"compound": "COc1ccc(-c2cc(Nc3cncnc3)c3ccccc3n2)cc1", "note": "[Compound G66, [2-(4-methoxyphenyl)(4-quinolyl)]pyrimidin-5-ylamine]", "values": [{"measurement": "IC50", "result": "801 to 5000", "unit": "nM"}]}, {"compound": "COc1ncc(-c2cc(NCCCN3CCCCC3)c3ccccc3n2)c(OC)n1", "note": "[Compound I141]", "values": [{"measurement": "IC50", "result": "801 to 5000", "unit": "nM"}]}, {"compound": "COc1ccc(Cl)cc1-c1cc(NCCCN2CCCCC2)c2ccccc2n1", "note": "[Compound I133]", "values": [{"measurement": "IC50", "result": "801 to 5000", "unit": "nM"}]}, {"compound": "FC(F)(F)c1ncccc1-c1cc(NCCCN2CCCCC2)c2ccccc2n1", "note": "[Compound I153]", "values": [{"measurement": "IC50", "result": "801 to 5000", "unit": "nM"}]}, {"compound": "CN(C)Cc1cccc(Nc2cc(-c3cccc(Cl)c3)nc3ccccc23)c1", "note": "[Compound I22, [(3-{[2-(3-chlorophenyl)(4-quinolyl)]amino}phenyl)methyl]dimethylamine]", "values": [{"measurement": "IC50", "result": "200 to 800", "unit": "nM"}]}, {"compound": "CN(C)c1cc(-c2ccoc2)nc2ccccc12", "note": "[Compound G15, (2-Furan-3-yl-quinolin-4-yl)-dimethyl-amine]", "values": [{"measurement": "IC50", "result": "> 5000", "unit": "nM"}]}, {"compound": "O=C(NCC1CCCO1)c1ccc(-c2cc(NCCCN3CCCCC3)c3ccccc3n2)cc1", "note": "(centres unmarked) [Compound I64]", "values": [{"measurement": "IC50", "result": "801 to 5000", "unit": "nM"}]}]}
